Measurements as given in patent publication US20090197811A1, “ORALLY ADMINISTERED PEPTIDES TO IMPROVE OR PREVENT HEPATIC FIBROSIS” (University of Southern California, priority 2007, published 2009).
Non-standard residues stand in square brackets, D forms with d.

How the values were obtained:
C57Bl/6J mice [1] = assay: Western diet model: biochemical findings and liver and body weights; assay type: in vivo, mouse; details: for GSH / TBARS: liver; for ALT / AST / Adiponectin / Cholesterol / Glucose / Insulin / Leptin / Triglycerides: serum
Method: SR141716 was a kind gift from Sanofi-Aventis, France. SR141716 was dissolved in water with 0.1% Tween and given daily by gavage for 10 weeks. D-4F is an 18-mer of D-amino acids (Ac-D-W-F-K-A-F-Y-D-K-V-A-E-K-F-K-E-A-F-NH2)^4 (SEQ ID NO: 1) that was commercially synthesized (A & A Laboratories, San Diego Calif.) with 80% purity. D-4F was dissolved in the drinking water at a concentration of 60 μg/ml water for a calculated dose corrected for drug purity of 125 μg D-4F/mouse/day.
The high fat diet used was the RD “Western diet” (Research Diets, D12079B), which contains 41% of calories from fat, 43% calories from carbohydrate, and 17% of calories from protein); this diet was designed to approximate the “typical” human diet of North America and Europe.
(§1) Studies were performed in male C5713L/6J mice (Jackson Laboratories, Bar Harbor Me.). Six groups were studied (n=3-5, see FIG. 1) with 4 mice per group at the outset, except for group 2, which was started with n=5; 1 mouse died in group 1. Groups 1, 2, and 3 received the Western diet for 9.5 months; during the last 2.5 months of the 9.5 months, group 2 received SR141716 10 mg/kg/day i.g., and group 3 received D-4F, 125 μg/mouse/day, in the drinking water. Groups 4, 5, and 6 received the Western diet for 7 months followed by standard chow for 2.5 months; during the 2.5 months on standard chow, group 5 received SR141716 and group 6 received D-4F as described for groups 2 and 3, respectively. Additional control groups were studied: 6-month old C57Bl/6J mice as age-matched controls (n=5) and C57Bl/6J mice that received the Western diet for 6 months (n=6).
Serum aspartate amino transferase (AST) and alanine aminotransferase (ALT) were measured with the Infinity AST and ALT liquid assay reagent (Thermo Electron Corporation, Louisville Colo., cat #TR70121 and TR71121). Serum triglycerides and cholesterol were measured with the Infinity cholesterol assay reagent (Thermo Electron Corporation, Louisville Colo., cat #TR22321 and TR13315). Serum glucose was measured with the Glucose (HK) assay kit (Sigma, St. Louis, Mo., cat #GAHK-20). Serum insulin was measured with the Mercodia Ultrasensitive mouse insulin ELISA kit (ALPCO Diagnostics, Salem N.H., cat #10 1150-01). The homeostasis model assessment insulin resistance index (HOMA-IR) was calculated as [fasting glucose (mmol/liter)*fasting insulin (microunits/ml)]/22.5^17, 18. Serum leptin was measured with the TiterZyme EIA mouse leptin kit (Assay Designs Inc, Ann Arbor Mich., cat #900-019). Serum adiponectin was measured with the mouse adiponectin kit (Biovendor LLC, Candler N.C., cat #RD 293023100). Thiobarbituric acid reactive substance (TBARS) was measured as previously described^19, 20; in brief, liver was homogenized and diluted 1:1 in 10% ice cold trichloroacetic acid. 0.5 ml supernatant or of a standard solution of 1,1,3,3-tetraethoxypropane was mixed with 0.5 ml of 0.6% (w/v) 4,6-dihydroxy-2-thiopyrimidine. The solution was boiled for 30 min, cooled and centrifuged. Absorbance was measured at 532 nm with a Shimadzu TV-2101 PC spectrophotometer. To measure hepatic glutathione (GSH), liver was homogenized and diluted 1:1 in 10% ice cold trichloroacetic acid. GSH in the supernatant was measured according to the recycling assay of Tietze^21.

C57Bl/6J mice [2] = assay: Western diet model: α-smooth muscle actin staining of liver sections; assay type: in vivo, mouse; details: mice on the Western diet treated with D-4F (FIG. 4E)
Method: as §1
Sections of formalin-fixed, paraffin-embedded liver, 7 μm thick, were used for α-smooth muscle actin immunofluorescence staining. Slides were deparaffinized in xylene and serially rehydrated in graded ethanol (100-70%). Slides were treated with 0.1 M tris-HCl (pH 7.6)/0.05 Tween-20 for 5 min, incubated with 1 μg/ml proteinase K (Sigma, St Louis Mo.)) for 15 min at room temperature, and then rinsed in water for 10 min. […]

[3] = 7 months Western diet followed by 2.5 months Western diet + drug
[4] = 7 months Western diet followed by 2.5 months chow + drug
[5] = group 3 vs group 1, Western diet 9.5 months, D-4F last 2.5 months

Ac-D-W-F-K-A-F-Y-D-K-V-A-E-K-F-K-E-A-F-NH2 (Ac-[dD][dW][dF][dK][dA][dF][dY][dD][dK][dV][dA][dE][dK][dF][dK][dE][dA][dF]-NH2; not fully specified; printed as Ac-D-W-F-K-A-F-Y-D-K-V-A-E-K-F-K-E-A-F-NH2) [D-4F]
Body weight (C57Bl/6J mice [1]; [3]): 39.5 ± 0.8 g
HOMA-IR (C57Bl/6J mice [1]; [3]): 63.3 ± 23.5
Liver weight (C57Bl/6J mice [1]; [3]): 2.42 ± 0.04 g
Body weight (C57Bl/6J mice [1]; [4]): 35.9 ± 3.2 g
HOMA-IR (C57Bl/6J mice [1]; [4]): 16.5 ± 2.2
Liver weight (C57Bl/6J mice [1]; [4]): 1.67 ± 0.19 g
body weight, liver weight, serum transaminases, hyperglycemia, hyperinsulinemia, insulin resistance, overall hepatic oxidative stress (C57Bl/6J mice [1]; [5]): no improvement
leptin levels compared to mice on Western diet alone (C57Bl/6J mice [1]; [5]): decreased by half
total cholesterol compared to mice on Western diet alone (C57Bl/6J mice [1]; [5]): decreased by half
GSH (C57Bl/6J mice [1]; [3]): 50.1 ± 5.8 nmole/mg protein
TBARS (C57Bl/6J mice [1]; [3]): 29.4 ± 2.4 nmol/g tissue
GSH (C57Bl/6J mice [1]; [4]): 82.8 ± 5.2 nmole/mg protein
TBARS (C57Bl/6J mice [1]; [4]): 20.0 ± 0.6 nmol/g tissue
ALT (C57Bl/6J mice [1]; [3]): 277.3 ± 18.2 U/L
AST (C57Bl/6J mice [1]; [3]): 211.9 ± 19.1 U/L
Adiponectin (C57Bl/6J mice [1]; [3]): 15.3 ± 1.0 µg/mL
Cholesterol (C57Bl/6J mice [1]; [3]): 146.8 ± 2.1 mg/dL
Glucose (C57Bl/6J mice [1]; [3]): 231.2 ± 18.0 mg/dL
Insulin (C57Bl/6J mice [1]; [3]): 3.7 ± 1.1 ng/mL
Leptin (C57Bl/6J mice [1]; [3]): 17.49 ± 1.41 ng/mL
Triglycerides (C57Bl/6J mice [1]; [3]): 40.0 ± 6.7 mg/dL
ALT (C57Bl/6J mice [1]; [4]): 69.1 ± 21.5 U/L
AST (C57Bl/6J mice [1]; [4]): 104.2 ± 22.4 U/L
Adiponectin (C57Bl/6J mice [1]; [4]): 18.52 ± 1.5 µg/mL
Cholesterol (C57Bl/6J mice [1]; [4]): 120.8 ± 2.9 mg/dL
Glucose (C57Bl/6J mice [1]; [4]): 159.2 ± 2.4 mg/dL
Insulin (C57Bl/6J mice [1]; [4]): 1.46 ± 0.2 ng/mL
Leptin (C57Bl/6J mice [1]; [4]): 8.70 ± 1.43 ng/mL
Triglycerides (C57Bl/6J mice [1]; [4]): 49.1 ± 1.4 mg/dL
activated stellate cells in liver sections (α-smooth muscle actin staining) (C57Bl/6J mice [2]): decrease in activated stellate cells
